# Results taken from article PMC3832525, “A Cell-Free Fluorometric High-Throughput Screen for Inhibitors of Rtt109-Catalyzed Histone Acetylation” (PLoS ONE, 2013).
# What was measured:
# Rtt109-Vps75 complex = target: T1, Rtt109-Vps75 complex (Saccharomyces cerevisiae, UniProt Q07794); test: CPM-based fluorometric Rtt109-Vps75 HTS / dose-response assay; type: biochemical, S. cerevisiae
# T1 construct: using two full-length physiologically relevant protein complexes; made in house
# T1 sequence (Q07794 1-436): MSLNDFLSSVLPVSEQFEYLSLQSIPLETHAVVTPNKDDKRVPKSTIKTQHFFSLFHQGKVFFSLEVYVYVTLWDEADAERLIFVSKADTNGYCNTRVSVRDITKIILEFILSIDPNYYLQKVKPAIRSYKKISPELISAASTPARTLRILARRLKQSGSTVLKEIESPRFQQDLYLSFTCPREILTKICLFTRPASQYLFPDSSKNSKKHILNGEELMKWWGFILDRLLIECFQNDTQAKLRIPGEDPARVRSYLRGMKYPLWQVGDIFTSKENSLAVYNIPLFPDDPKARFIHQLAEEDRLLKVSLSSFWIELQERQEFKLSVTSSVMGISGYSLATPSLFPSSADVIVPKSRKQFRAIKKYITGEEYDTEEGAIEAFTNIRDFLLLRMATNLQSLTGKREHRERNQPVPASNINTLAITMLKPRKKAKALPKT
# T1 sequence (P53853 1-264 partner): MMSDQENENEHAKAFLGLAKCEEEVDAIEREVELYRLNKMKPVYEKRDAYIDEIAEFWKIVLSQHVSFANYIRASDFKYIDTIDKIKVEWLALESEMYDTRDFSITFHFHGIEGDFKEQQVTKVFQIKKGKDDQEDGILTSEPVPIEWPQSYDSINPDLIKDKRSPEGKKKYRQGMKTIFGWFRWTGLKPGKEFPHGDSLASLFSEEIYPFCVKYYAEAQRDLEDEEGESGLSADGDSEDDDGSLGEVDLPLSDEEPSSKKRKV
# Experimental: (§1) Compounds selected for dose-response analyses were tested in duplicate at eight compound concentrations, ranging from 40 nM to 125 µM final compound concentrations. Plate controls, dispensing steps and general assay procedures were unchanged from the aforementioned HTS procedures. Slot blots were performed using standard techniques with a Bio-Rad Bio-Dot SF microfiltration apparatus. Membranes were imaged with a LI-COR Odyssey and analyzed using Image Studio (LI-COR Biosciences). For the slot blot experiments, the assay plates included an additional plate control consisting of the Rtt109-Vps75 and Asf1-dH3-H4 complexes and no acetyl-CoA. Dose-response and slot blot experiments were replicated at least three times by independent experiments.
# Rtt109 = test system: Rtt109; set-up: method as in PMID 18568037; details: ref [11]; cited from earlier work
# [1] = target: T2, Rtt109-catalyzed histone acetylation (H3K56ac, H3K27ac, H3K9ac) (Saccharomyces cerevisiae, UniProt Q07794); test: Orthogonal antibody-based slot blot assay of histone acetylation; type: biochemical, S. cerevisiae; details: reaction aliquots
# T2 construct: using two full-length physiologically relevant protein complexes; made in house
# T2 sequence (Q07794 1-436): T1 sequence (Q07794 1-436)
# T2 sequence (P53853 1-264 partner): T1 sequence (P53853 1-264 partner)
# Experimental: as §1
# This method utilizes modification-specific antibodies to detect changes in the actual histone acetylation, rather than the CoA by-product. […] Equal protein content was verified by Ponceau S staining (Figure 5B).
# β-lactamase = details: 10 µM
# Experimental: Selected compounds were also de-risked for aggregation behavior using published procedures [55], except that the published assay buffer was again swapped for the HTS buffer. Rotterlin and lidocaine were used as a positive and negative compound controls, respectively [56]. Compounds were tested at 10 µM final concentrations in either the presence or absence of 0.01% Triton X-100.
# p300 = details: ref [69], [70]; cited from earlier work
# PCAF = details: ref [69], [70]; cited from earlier work
structure (smiles),measurement,setting,value
"O=C(O)C1=CC(=C(c2ccc(O)c(C(=O)O)c2)c2ccc(O)c(C(=O)O)c2)C=CC1=O [ATA, aurintricarboxylic acid]",signal reduction in HTS compound control wells,Rtt109-Vps75 complex; 10 µM final concentration,50%
CC(=O)N[C@@H](CCCCNC(=O)CSCCNC(=O)CCNC(=O)[C@H](O)C(C)(C)COP(=O)(O)OP(=O)(O)OC[C@H]1O[C@@H](n2cnc3c(N)ncnc32)[C@H](O)[C@@H]1OP(=O)(O)O)C(N)=O [Lys-CoA],activity versus Rtt109,Rtt109,have not shown activity
OC(Cn1cncn1)(Cn1cncn1)c1ccc(F)cc1F [fluconazole],activity against Rtt109-catalyzed histone acetylation in the CPM-based assay,"Rtt109-Vps75 complex; dose-response, negative compound control","but not fluconazole, showed modest activity"
same,histone acetylation by slot blot,[1],did not show any measureable decrease
C=C(C)[C@@H](CC=C(C)C)C[C@@]12C[C@@H](CC=C(C)C)C(C)(C)[C@@](CC=C(C)C)(C(=O)C(C(=O)c3ccc(O)c(O)c3)=C1O)C2=O [garcinol],H3K9ac by slot blot,[1]; modification-specific antibody,dose-dependent decreases
same,H3K27ac by slot blot,[1]; modification-specific antibody,dose-dependent decreases
same,H3K56ac by slot blot,[1]; modification-specific antibody,dose-dependent decreases
same,"inhibition of β-lactamase activity, detergent present",β-lactamase; 0.01% Triton X-100,no such inhibition was observed
same,"inhibition of β-lactamase activity, detergent-free",β-lactamase; absence of detergent,only modest inhibition
same,IC50,p300,7 µM
